Literature values as cited in article PMC11988817, “Prediction and Prioritisation of Novel Anthelmintic Candidates from Public Databases Using Deep Learning and Available Bioactivity Data Sets” (International Journal of Molecular Sciences, 2025).
Read-outs that look alike come from different tables or passages of the source.

Test system: Haemonchus contortus
Conditions: cited from earlier work

Q: For `COc1ccc(-c2cnc3c(n2)CCCC3)cc1C#N` [APDB C798], which “antiparasitic activity (in words)” value (tetrahydroquinoxalines) is on record?
A: antiparasitic activity was observed

Q: With `CC(C#N)(COc1cc(C#N)ccc1C(F)(F)F)NC(=O)c1ccc(OC(F)(F)F)cc1` (stereo not drawn) [APDB C823] as the compound, how does the “antiparasitic activity (in words)” value read?
A: possess antiparasitic activity

Q: For `CC(C)Oc1cccc(-c2cnc3c(n2)CCCC3)c1` [APDB C802], which “antiparasitic activity (in words)” value (tetrahydroquinoxalines) is on record?
A: antiparasitic activity was observed
